Numbers after ± are expanded uncertainties.
Experiment: wn = mass fraction of the nth substance listed
Settings: 102 kPa, Liquid; for viscosity: Falling or rolling sphere viscometry; for mass density: Vibrating tube method

SMILES: CN(CCO)CCO [N-methyldiethanolamine] + OCCO
- viscosity (283.15 K, w1 = 0.3): 64.36 ± 4.2 mPa·s
- viscosity (283.15 K, w1 = 0.4): 80.69 ± 4.3 mPa·s
- viscosity (283.15 K, w1 = 0.5): 99.66 ± 4.7 mPa·s
- viscosity (283.15 K, w1 = 0.8): 164.27 ± 7.6 mPa·s
- viscosity (283.15 K, w1 = 0.9): 181.33 ± 8.6 mPa·s
- viscosity (283.15 K, w1 = 1): 198.15 ± 9.4 mPa·s
- mass density (283.15 K, w1 = 0.3): 1101.8 ± 0.3 kg/m3
- mass density (283.15 K, w1 = 0.4): 1095.1 ± 0.3 kg/m3
- mass density (283.15 K, w1 = 0.5): 1088.1 ± 0.4 kg/m3
- mass density (283.15 K, w1 = 0.7): 1073.3 ± 0.5 kg/m3
- mass density (283.15 K, w1 = 0.8): 1065.4 ± 0.7 kg/m3
- mass density (283.15 K, w1 = 0.9): 1057.2 ± 0.8 kg/m3
- mass density (283.15 K, w1 = 1): 1048 ± 0.3 kg/m3
- viscosity (298.15 K, w1 = 0.3): 30.43 ± 1.1 mPa·s
- viscosity (298.15 K, w1 = 0.4): 36.57 ± 1.1 mPa·s
- viscosity (298.15 K, w1 = 0.5): 43.55 ± 1.2 mPa·s
- viscosity (298.15 K, w1 = 0.7): 58.07 ± 2.7 mPa·s
- viscosity (298.15 K, w1 = 0.8): 66.59 ± 2.7 mPa·s
- viscosity (298.15 K, w1 = 0.9): 69.21 ± 2.8 mPa·s
- viscosity (298.15 K, w1 = 1): 74.87 ± 1.5 mPa·s
- mass density (298.15 K, w1 = 0.3): 1090.9 ± 0.3 kg/m3
- mass density (298.15 K, w1 = 0.4): 1084.3 ± 0.3 kg/m3
- mass density (298.15 K, w1 = 0.5): 1077.2 ± 0.4 kg/m3
- mass density (298.15 K, w1 = 0.7): 1062.1 ± 0.5 kg/m3
- mass density (298.15 K, w1 = 0.8): 1054 ± 0.7 kg/m3
- mass density (298.15 K, w1 = 0.9): 1045.6 ± 0.8 kg/m3
- mass density (298.15 K, w1 = 1): 1036.8 ± 0.3 kg/m3
- viscosity (313.15 K, w1 = 0.3): 15.89 ± 1.1 mPa·s
- viscosity (313.15 K, w1 = 0.4): 18.52 ± 1.1 mPa·s
- viscosity (313.15 K, w1 = 0.5): 21.58 ± 1.1 mPa·s
- viscosity (313.15 K, w1 = 0.7): 27.72 ± 1.1 mPa·s
- viscosity (313.15 K, w1 = 0.8): 30.49 ± 1.1 mPa·s
- viscosity (313.15 K, w1 = 0.9): 33.05 ± 1.1 mPa·s
- viscosity (313.15 K, w1 = 1): 35.05 ± 1.1 mPa·s
- mass density (313.15 K, w1 = 0.3): 1079.9 ± 0.2 kg/m3
- mass density (313.15 K, w1 = 0.4): 1073.2 ± 0.3 kg/m3
- mass density (313.15 K, w1 = 0.5): 1066 ± 0.3 kg/m3
- mass density (313.15 K, w1 = 0.7): 1050.8 ± 0.5 kg/m3
- mass density (313.15 K, w1 = 0.8): 1042.6 ± 0.7 kg/m3
- mass density (313.15 K, w1 = 0.9): 1034.1 ± 0.8 kg/m3
- mass density (313.15 K, w1 = 1): 1025.3 ± 0.3 kg/m3
- viscosity (323.15 K, w1 = 0.3): 10.8 ± 0.35 mPa·s
- viscosity (323.15 K, w1 = 0.4): 12.43 ± 0.36 mPa·s
- viscosity (323.15 K, w1 = 0.5): 14.2 ± 0.36 mPa·s
- viscosity (323.15 K, w1 = 0.7): 17.75 ± 0.39 mPa·s
- viscosity (323.15 K, w1 = 0.8): 19.48 ± 0.4 mPa·s
- viscosity (323.15 K, w1 = 0.9): 20.91 ± 0.4 mPa·s
- viscosity (323.15 K, w1 = 1): 21.96 ± 0.43 mPa·s
- mass density (323.15 K, w1 = 0.3): 1072.5 ± 0.2 kg/m3
- mass density (323.15 K, w1 = 0.4): 1065.7 ± 0.3 kg/m3
- mass density (323.15 K, w1 = 0.5): 1058.5 ± 0.3 kg/m3
- mass density (323.15 K, w1 = 0.7): 1043.1 ± 0.5 kg/m3
- mass density (323.15 K, w1 = 0.8): 1034.9 ± 0.7 kg/m3
- mass density (323.15 K, w1 = 0.9): 1026.4 ± 0.8 kg/m3
- mass density (323.15 K, w1 = 1): 1017.7 ± 0.2 kg/m3
- viscosity (333.15 K, w1 = 0.3): 7.82 ± 0.47 mPa·s
- viscosity (333.15 K, w1 = 0.4): 8.82 ± 0.48 mPa·s
- viscosity (333.15 K, w1 = 0.5): 9.94 ± 0.48 mPa·s
- viscosity (333.15 K, w1 = 0.7): 12.17 ± 0.49 mPa·s
- viscosity (333.15 K, w1 = 0.8): 13.26 ± 0.49 mPa·s
- viscosity (333.15 K, w1 = 0.9): 14.12 ± 0.49 mPa·s
- viscosity (333.15 K, w1 = 1): 14.83 ± 0.49 mPa·s
- mass density (333.15 K, w1 = 0.3): 1065.1 ± 0.2 kg/m3
- mass density (333.15 K, w1 = 0.4): 1058.1 ± 0.3 kg/m3
- mass density (333.15 K, w1 = 0.5): 1050.9 ± 0.3 kg/m3
- mass density (333.15 K, w1 = 0.7): 1035.4 ± 0.5 kg/m3
- mass density (333.15 K, w1 = 0.8): 1027.2 ± 0.7 kg/m3
- mass density (333.15 K, w1 = 0.9): 1018.7 ± 0.8 kg/m3
- mass density (333.15 K, w1 = 1): 1010 ± 0.2 kg/m3
- viscosity (343.15 K, w1 = 0.3): 5.75 ± 0.46 mPa·s
- viscosity (343.15 K, w1 = 0.4): 6.45 ± 0.46 mPa·s
- viscosity (343.15 K, w1 = 0.5): 7.17 ± 0.46 mPa·s
- viscosity (343.15 K, w1 = 0.7): 8.61 ± 0.47 mPa·s
- viscosity (343.15 K, w1 = 0.8): 9.26 ± 0.47 mPa·s
- viscosity (343.15 K, w1 = 0.9): 9.81 ± 0.47 mPa·s
- viscosity (343.15 K, w1 = 1): 10.29 ± 0.54 mPa·s
- mass density (343.15 K, w1 = 0.3): 1057.4 ± 0.2 kg/m3
- mass density (343.15 K, w1 = 0.4): 1050.5 ± 0.3 kg/m3
- mass density (343.15 K, w1 = 0.5): 1043.1 ± 0.3 kg/m3
- mass density (343.15 K, w1 = 0.7): 1027.5 ± 0.5 kg/m3
- mass density (343.15 K, w1 = 0.8): 1019.3 ± 0.7 kg/m3
- mass density (343.15 K, w1 = 0.9): 1010.9 ± 0.8 kg/m3
- mass density (343.15 K, w1 = 1): 1002.2 ± 0.2 kg/m3
- viscosity (353.15 K, w1 = 0.3): 4.44 ± 0.31 mPa·s
- viscosity (353.15 K, w1 = 0.4): 4.89 ± 0.31 mPa·s
- viscosity (353.15 K, w1 = 0.5): 5.36 ± 0.31 mPa·s
- viscosity (353.15 K, w1 = 0.7): 6.32 ± 0.32 mPa·s
- viscosity (353.15 K, w1 = 0.8): 6.76 ± 0.32 mPa·s
- viscosity (353.15 K, w1 = 0.9): 7.13 ± 0.32 mPa·s
- viscosity (353.15 K, w1 = 1): 7.4 ± 0.32 mPa·s
- mass density (353.15 K, w1 = 0.3): 1049.7 ± 0.2 kg/m3
- mass density (353.15 K, w1 = 0.4): 1042.7 ± 0.3 kg/m3
- mass density (353.15 K, w1 = 0.5): 1035.3 ± 0.3 kg/m3
- mass density (353.15 K, w1 = 0.7): 1019.7 ± 0.5 kg/m3
- mass density (353.15 K, w1 = 0.8): 1011.5 ± 0.7 kg/m3
- mass density (353.15 K, w1 = 0.9): 1003 ± 0.8 kg/m3
- mass density (353.15 K, w1 = 1): 994.5 ± 0.2 kg/m3

From the NIST ThermoML archive (doi:10.1021/acs.jced.9b00607)
